Measurements as given in the OPERA property sets (Mansouri et al. 2018).
Where a SMILES comes first, the peptide text is derived from it.

In order of falling logP:
1. Clc1ccc2oc3c(Cl)c(Cl)cc(Cl)c3c2c1  6.13
2. COC(=O)C(C)=CC1C(C(=O)OCc2cccc(C(=O)c3ccccc3)c2)C1(C)C (stereo unspecified)  5.45
3. CCCN(CCc1cccs1)C1CCc2c(O)cccc2C1 (stereo unspecified)  4.7
4. CN(c1nc2ccccc2s1)C1CCN(CC(O)COc2ccc(F)cc2)CC1 (stereo unspecified)  4.61
5. CC(=O)c1cc2ccc3cccc4ccc(c1)c2c34  4.29
6. COc1ccc(CCNCC(O)COc2ccc(-c3nc(C(C)(C)C)c[nH]3)cc2)cc1OC (stereo unspecified)  4.09
7. Cc1nc2c3c(c(C(=O)NC4CC4)cn2c1C)CCC(c1ccccc1)O3 (stereo unspecified)  4
8. COc1ccc(CCNCC(O)COc2ccc(-c3nc(C(C)C)c[nH]3)cc2)cc1OC (stereo unspecified)  3.9
9. Cc1ccc(CO)c(C=NNC(=O)c2cccc(Cl)c2)c1O  3.83
10. CC12CCC(c3c1ssc3=S)C2(C)C (stereo unspecified)  3.8
11. Cc1cccc(C)c1Cc1cn[nH]c1  3.6
12. O=C1NC(=O)C(c2ccccc2)(c2ccccc2)N1S(=O)(=O)c1ccc(O)cc1  3.58
13. COc1cccc(C(O)C(C(=O)O)c2ccc(-c3ccccc3)cc2)c1 (stereo unspecified)  3.53
14. COc1cc2ncnc(Nc3cccc(Cl)c3)c2cc1OC  3.51
15. Cc1sc2cc3oc(=O)cc(C)c3cc2c1C  3.48
16. Cc1oc2cc(C)c3ccc(=O)oc3c2c1C  3.36
17. Cc1oc2c(C)cc3ccc(=O)oc3c2c1C  3.34
18. CC(C)(Cc1c[nH]c2ccccc12)NCC(O)CON=C(C1CC1)C1CC1 (stereo unspecified)  3.29
19. CC(=O)OCOC(=O)N(C)N=Nc1ccc(C)cc1  3.28
20. CC(C)NC(=NC#N)NS(=O)(=O)c1cnccc1Nc1ccc(Cl)c(C(F)(F)F)c1  3.27
21. CCOC(=O)C1=C(C)NC(C)=C(C(=O)OC)C1C (stereo unspecified)  3.27
22. Cc1cc(=O)oc2c1cc(C)c1occ(C)c12  3.23
23. CC1OC(OC2C(C)OC(OC3C(C)OC(OC4CCC5(C)C(CCC6C5CCC5(C)C(C7=CC(=O)OC7)C(OC=O)CC65O)C4)CC3OC=O)CC2OC=O)CC(OC=O)C1OC=O (stereo unspecified)  3.16
24. C=CCON=C(C)c1cccc(Oc2nc(OC)cc(OC)n2)c1C(=O)OC  3.13
25. CCOC(=O)Nc1ccc2cc3ccc4c(c3nc2c1)COCN4C(=O)OCC  3.12
26. COC1CC(OC2C(O)CC(OC3CCC4(C)C(CCC5C4CCC4(C)C(C6=CC(=O)OC6)CCC54O)C3)OC2C)OC(C)C1OC1CC(O)C(O)C(C)O1 (stereo unspecified)  3.11
27. CCNC(=S)NS(=O)(=O)c1cnccc1NC1CCCCC1  3.1
28. C[C@]12CCC(=O)C=C1[C@@H]1C[C@@H]1[C@@H]1[C@@H]2CC[C@@]2(C)[C@H]1CC[C@@]21CCC(=O)O1  3.08
29. CCN(CC)CCSC(=NO)c1nc(-c2ccccc2)no1  3.05
30. CCOC(=O)c1c[nH]c2ccccc12  3.04
31. Cc1cc2cc3ccc(=O)oc3c(C)c2o1  2.93
32. CCc1ccccc1CNc1[nH]cnc2ncnc1-2  2.92
33. O=C(O)CCCCCON=C(c1ccccc1)c1cncnc1  2.91
34. CCCC(=NOCC)C1=C(O)CC2(CCSCC2)OC1=O  2.9
35. CC(=O)Oc1ccccc1C(=O)OC1Cc2c(O)cc(O)cc2OC1c1ccc(O)c(O)c1 (stereo unspecified)  2.87
36. CC(C)c1cccc(C(C)C)c1NC(=O)CC(=O)c1ccccc1  2.87
37. Cc1cc2oc(=O)cc(C)c2c2occc12  2.84
38. CCCCC(=O)OCOCC(=O)C1(O)Cc2c(O)c3c(c(O)c2C(OC2CC(N(C)C)C(O)C(C)O2)C1)C(=O)c1c(OC)cccc1C3=O (stereo unspecified)  2.82
39. CCCN(CC)CC(=O)Nc1c(C)cccc1C  2.74
40. CC1CCC2OC2(C)C12CCC(C(C)(C)O)C2 (stereo unspecified)  2.7
41. CCCNc1nc(CCC)nc(N2CCOCC2)n1  2.7
42. O=S(=O)(c1ccccc1)C(F)(F)F  2.68
43. Nc1nc(N)c2c(N3CCCCC3)cccc2n1  2.66
44. O=C(O)c1ccccc1C(c1ccc(O)cc1)c1ccc(O)cc1  2.61
45. Nc1nnc(-c2cccc(Cl)c2Cl)c(N)n1  2.57
46. O=Cc1ccc(Cl)cc1O  2.49
47. Clc1cc(Br)cc(Cl)c1N=C1NCCN1  2.46
48. COc1ccc(CCNCC(O)CON=C(C2CC2)C2CC2)cc1OC (stereo unspecified)  2.42
49. NC1=NCC(CN2CCC(Cc3ccccc3)CC2)O1 (stereo unspecified)  2.38
50. Cc1cccc(C)c1-c1cnc[nH]1  2.38
51. CC(C)NC(=NC#N)NS(=O)(=O)c1cnccc1Nc1ccc(Cl)cc1  2.37
52. Cc1c2ccoc2cc2oc(=O)ccc12  2.33
53. Fc1cccc(CNc2ncnc3nc[nH]c23)c1  2.31
54. COc1ccc(CCNCC(O)COc2ccc(-c3nc(C(N)=O)c[nH]3)cc2)cc1OC (stereo unspecified)  2.3
55. CN1CC(O)N(C(=O)NC2CCCCCC2)C1=O (stereo unspecified)  2.29
56. Cc1oc2nc3oc(=O)ccc3c(C)c2c1C  2.19
57. CNC(C)Cc1ccc2c(c1)OCO2 (stereo unspecified)  2.15
58. CNC(C)Cc1ccc(F)cc1 (stereo unspecified)  2.15
59. Nc1nc(N)c2c(S(=O)(=O)c3ccccc3)cccc2n1  2.14
60. Cc1ccc(OCC2CN=C(N)O2)cc1C (stereo unspecified)  2.1
61. CC1NCCc2c1[nH]c1ccc([N+](=O)[O-])cc21 (stereo unspecified)  2.07
62. O=C1CCCc2nnc(-c3ccccc3)cc21  2.05
63. CC(=O)c1ccc([N+](=O)[O-])cc1O  2.05
64. CCCCc1cnc(C2=NC(C)(C(C)C)C(=O)N2)c(C(=O)O)c1 (stereo unspecified)  1.99
65. C=CCNC(=O)N(CCCCC(NC(C)=O)C(=O)NCc1ccccc1)Cc1ccccc1 (stereo unspecified)  1.98
66. COc1ccc(C(C)=O)c(O)c1  1.98
67. COC(=O)C(C)NP(=O)(OCC1C=CC(n2cc(C)c(=O)[nH]c2=O)O1)Oc1ccc(I)cc1 (stereo unspecified)  1.93
68. OCC1OC(n2cnc3c(NCCCc4ccccc4)ncnc32)C(O)C1O (stereo unspecified)  1.92
69. CC(=O)NC(CCCN(Cc1ccccc1)C(=O)N(CCCl)N=O)C(=O)NCc1ccccc1 (stereo unspecified)  1.92
70. CC(=NNC(=O)c1ccc(O)cc1)c1cnccn1  1.9
71. N#CNc1ccccc1  1.87
72. CNc1ncnc2c1ncn2Cc1ccccc1F  1.86
73. CC(C)c1cccc(O)c(=O)c1  1.82
74. N#Cc1cccc(Cn2cccn2)c1  1.74
75. Cc1cc(=O)[nH]nc1/C=C/c1ccc(-n2ccnc2)cc1  1.71
76. COC(=O)Nc1c(C)cccc1C  1.69
77. OCC1OC(n2cnc3c(NCCc4ccccc4)ncnc32)C(O)C1O (stereo unspecified)  1.55
78. Cc1cccc(N2CCN(CC3CN=C(N)O3)CC2)c1 (stereo unspecified)  1.46
79. Nc1nnnn1-c1cccc(Cl)c1  1.44
80. COC(=O)C(C)NP(=O)(OCC1C=CC(n2cc(C)c(=O)[nH]c2=O)O1)Oc1cccc(Cl)c1 (stereo unspecified)  1.42
81. CCCC(=O)c1ccncc1  1.4
82. NC(=O)C(Cc1c[nH]c2ccccc12)NC(=O)C(N)Cc1ccccc1 (stereo not drawn) (H-Phe-Trp-NH2; configuration not given here)  1.38
83. CON(C)C(=O)Nc1cccc(C#N)c1  1.33
84. O=C1N=C(N2CCOCC2)CN1Cc1c(Cl)cccc1Cl  1.3
85. O=C1N=C(N2CCOCC2)CN1Cc1cccc(Cl)c1  1.3
86. COC(=O)C1=C(C)NC(C)=C(P2(=O)OCCCO2)C1c1ccccc1[N+](=O)[O-] (stereo unspecified)  1.3
87. CC(CO)CCNc1ncnc2nc[nH]c12 (stereo unspecified)  1.16
88. CNC(=S)OCCn1c([N+](=O)[O-])cnc1C  1.12
89. COc1ccc(C2=NC(C(=O)O)CS2)c(O)c1OC (stereo unspecified)  1.1
90. COC(=O)C(C)NP(=O)(OCC1C=CC(n2cc(C)c(=O)[nH]c2=O)O1)Oc1ccc(F)cc1 (stereo unspecified)  1.1
91. COc1cc(OS(C)(=O)=O)ccc1-c1cn2cccnc2n1  1.05
92. NS(=O)(=O)c1ccc(Cn2cnc3ccccc32)cc1  1.04
93. COC1Cc2c(O)cc(O)cc2OC1c1ccc(O)c(O)c1 (stereo unspecified)  1
94. CCCNC(=O)N1C(=O)N(C)CC1O (stereo unspecified)  0.99
95. CC(C)(C)N=O  0.91
96. Nc1nnnn1-c1cccc(F)c1  0.91
97. CCNc1ccc(NC(=O)N(C)OC)cc1  0.83
98. CS(=O)c1ccc2c(c1)C(c1ccccc1)=NCC(=O)N2 (stereo unspecified)  0.8
99. CC(CO)CNc1[nH]cnc2ncnc1-2 (stereo unspecified)  0.61
100. CCC1(c2ccncc2)CCC(=O)NC1=O (stereo unspecified)  0.58
101. C#CCOc1noc2c1CNCC2  0.4
102. CCCCCCC(=O)Oc1ccc2c3c1OC1C(OS(=O)(=O)O)C=CC4C(C2)N(C)CCC341 (stereo unspecified)  0.36
103. NC(=O)c1cccc(Cc2ncccn2)c1  0.28
104. CN1CCN(Cc2cnccc2Cl)C1=N[N+](=O)[O-]  0.26
105. NC1=NCC(CN2CC=CCC2)O1 (stereo unspecified)  0.19
106. OCCCNc1[nH]cnc2ncnc1-2  0.11
107. NC(=O)c1cccc(Cn2ccnc2)c1  -0.01
108. CCC(C)C(NC(C)=O)C(=O)NC(Cc1ccccc1)C(=O)NC(CCCNC(=N)N)C(N)=O (stereo not drawn) (Ac-Ile-Phe-Arg-NH2; configuration not given here)  -0.05
109. CCCNC(=O)CNC(=O)C=[N+]=[N-]  -0.24
110. Nc1ccno1  -0.47
111. CCCCOC1C(=O)NC(=O)NC1=[N+]=[N-] (stereo unspecified)  -0.55
112. CC(C)CC(NC(=O)C(C)N)C(=O)NC(CC(C)C)C(=O)NCC(=O)NC(Cc1ccccc1)C(=O)O (stereo unspecified) (H-ALLGF-OH; configuration not given here)  -0.63
113. CCCNC(=O)CCC(=O)NCc1c(O)c(=O)cc(C)n1C  -0.7
114. Cc1[nH]cnc1CSCCNC1=C([N+](=O)[O-])CCN1  -0.87
115. CC(N)C(=O)NCC(=O)NC(Cc1ccccc1)C(=O)NC(C(=O)NC(Cc1ccccc1)C(=O)O)C(C)C (stereo unspecified) (H-AGFVF-OH; configuration not given here)  -1.1
116. CC(C)CC(N)C(=O)NC(C(=O)NCC(=O)NC(C(=O)NC(Cc1ccccc1)C(=O)O)C(C)O)C(C)C (stereo unspecified) (H-LVGTF-OH; configuration not given here)  -1.18
117. CC(C)CC(N)C(=O)NC(C(=O)NC(C(=O)O)C(C)C)C(C)C (stereo not drawn) (H-Leu-Val-Val-OH; configuration not given here)  -2.1
118. CCC(C)C(N)C(=O)NC(CO)C(=O)NC(CC(C)C)C(=O)O (stereo not drawn) (H-Ile-Ser-Leu-OH; configuration not given here)  -2.28
119. COCC(O)CN(C(C)=O)c1c(I)c(C(=O)NCC(O)CO)c(I)c(C(=O)NCC(O)CO)c1I (stereo unspecified)  -2.42
120. CCO[PH](=O)O  -2.7
121. CC(C)C(N)C(=O)N1CCCC1C(=O)NCC(=O)NC(C(=O)O)C(C)C (stereo unspecified) (H-VPGV-OH; configuration not given here)  -2.83
